From patent US20250101052A1, “COMPOUND FOR EGFR KINASE INHIBITOR, COMPOSITION, AND USE THEREOF” (INNOVATION INSTITUTE FOR ARTIFICIAL INTELLIGENCE IN …, priority 2021, published 2025)

How the values were obtained:
[1] = target: EGFR^L858R/T790M/C797S kinase (Homo sapiens (Human), UniProt P00533, C797S/L858R/T790M); experiment: EGFR^L858R/T790M/C797S kinase inhibitory activity experiment; assay type: biochemical; conditions: in vitro
Experimental: EGFRL^858R/T790M/C797S kinase inhibitory activity experiment: The compounds of the present invention have excellent in-vitro inhibitory activity against EGFR^L858R/T790M/C797S kinase
• Centrifuge (manufacturer: Eppendorf, model: 5430) • Microplate reader (manufacturer: Perkin Elmer, model: Caliper EZ ReaderII) • Echo 550 (manufacturer: Labcyte, model: Echo 550) • Experimental Method • Compound preparation: • A 10 mM storage solution was prepared.
(1) 1×Kinase buffer was prepared.
(2) Preparation of concentration gradient of compound: The tested compound has a test concentration starting from 1 μM, diluted 10 times, with 10 concentrations, and subjected to single-well or multi-well detection. The compound was diluted to a 100% DMSO solution with a final concentration of 100 times in a 384 source plate. […] of the compound at a final concentration of 100 times was transferred to the target plate 384-well-plate using the pipette Echo 550.
(3) A kinase solution with a final concentration of 2.5 times was prepared using 1× Kinase buffer.
(4) 10 μL of the kinase solution with the final concentration of 2.5 times was added to a compound well and a positive control well, respectively; 10 μL of 1×Kinase buffer was added to a negative control well.
(5) Centrifugation was conducted at 1000 rpm for 30 seconds, and the reaction plate was shaken and mixed well, and incubated at a room temperature for 10 minutes.
(6) A mixed solution of ATP with a final concentration of 5/3 times and Kinase substrate 22 was prepared using 1×Kinase buffer.
(7) A mixed solution of 15 μL of ATP with a final concentration of 5/3 times and a substrate was added for initial reaction.
(8) The 384-well-plate was centrifuged at 1000 rpm for 30 seconds, shaken and mixed well, and incubated at a room temperature for 60 minutes.
(9) 30 μL of a termination detection solution was added to stop the kinase reaction. Centrifugation was conducted at 1000 rpm for 30 seconds. Shaking and mixing well were conducted.
(10) The conversion rate was read using Caliper EZ Reader.
where Conversion %_sample is the conversion rate reading of the sample; Conversion %_min: the average value of negative control wells, representing the conversion rate reading of wells without enzyme activity; Conversion %_max: the average value of positive control wells, representing the conversion rate reading of wells without compound inhibition; % Inhibition represents the inhibition rate.
Fitting of Dose-Response Curve
Using the log value of concentration as the X-axis and the percentage inhibition rate as the Y-axis, the dose-response curve was fitted using the log(inhibitor) vs. response —Variable slope of the analysis software GraphPad Prism 5 to obtain the IC50 value of each compound on enzyme activity.

[2] = tested on: BaF3-EGFR^L858R/T790M/C797S cells; experiment: BaF3 cell proliferation inhibition experiment (CCK-8); assay type: cell-based; conditions: Ba/F3 EGFR-L858R, 72 hours
Excerpt: BaF3 cell proliferation inhibition experiment: The compounds of the present invention have excellent inhibitory activity against the proliferation of BaF3-EGFR^L858R/T790M/C797S cells
A. Cell line: BaF3 cells with stable overexpression of wild-type genes are named BaF3-EGFR^WT, and BaF3 cells with stable overexpression of EGFR^L858R/T790M/C797S EGFR^del19/T790M/C797S EGFR^L858R/C797S and EGFR^del19/C797S mutant genes are named BaF3-EGFR^L858R/T790M/C797S BaF3-EGFR^del19/T790M/C797S BaF3-EGFR^L858R/C797S and BaF3-EGFR^del19/C797S cells, respectively. Mediums:
(§1) a) The medium was preheated in a 37° C. water bath.
(§2) b) The cryopreservation tube was taken from the liquid nitrogen tank, quickly placed in a 37° C. water bath, and melted completely within 1 minute.
(§3) c) The cell suspension was transferred to a 15 mL centrifuge tube containing a 10 mL medium and centrifuged at 1000 rpm for 4 minutes.
(§4) d) The supernatant was discarded, the cells were resuspended in a 1 mL medium and transferred to a […] culture dish containing a 10 mL medium, 20% serum and 50 ng/mL EGF were administered to the first-generation medium, and culture was conducted in a 37° C. and 5% CO2 incubator.
(§5) b) The cells in the culture dish were blown evenly with a 5 mL pipette, and 500 μL of the cells were pipetted out to be inoculated into a new […] culture dish and cultured in a 37° C. and 5% CO2 incubator.
(§6) a) The compound to be tested (10 mM stock solution) was diluted with 100% DMSO to 1 mM, and diluted with a culture solution in a 24-well plate to prepare of a working solution of 2 μM concentration.
(§7) b) The 2 μM working solution was diluted with a triple dilution method to obtain working solutions with approximate concentrations of 2 μM, 600 nM, 200 nM, 60 nM, and 20 nM.
(§8) a) The cells at the logarithmic growth phase were centrifuged at 1000 rpm for 4 minutes, resuspended with a medium (containing 10% serum and 50 ng/mL EGF), and counted.
(§9) b) The cells were inoculated into a 96-well plate with a cell density of 4000 cells/well, and placed in a 37° C. and 5% CO2 incubator for culture for 12 hours.
(§10) a) The prepared compound was added to a 96-well plate, with 100 μL per well. The final concentrations were 1 μM, 300 nM, 100 nM, 30 nM, 10 nM, and 0 nM, and the final concentration of DMSO was 0.2%. A medium served as a blank control.
(§11) b) The cells were placed in 37° C. and 5% CO2 incubator for culture for 72 hours.
(§12) (5) Cell Viability Testing
a) The 96-well cell culture plate was taken out, and 20 μL of a CCK-8 reagent (Cell Counting Kit-8, Topscience, Catalog No. C0005) was added in the dark.
b) Mixing well was conducted on a horizontal shaking table at a room temperature at 100 rpm for 5 minutes.
c) The culture plate was placed in a 37° C. constant-temperature incubator for incubation.
d) Starting from the addition of the CCK-8, the absorbance at 450 nm was read using the TECAN microplate reader at 1 hour, 2 hours, and 3 hours, respectively.
(§13) The data was analyzed using GraphPad Prism 8.0 software to obtain a fitted curve of activity of the compounds. The IC50 of the compounds was fitted from nonlinear regression equation.

A431 cells = experiment: A431 cell proliferation inhibition (SRB); assay type: cell-based; conditions: Homo sapiens, A-431, wild-type EGFR, 72 hours
Experimental: A431 cell proliferation inhibition: The compounds of the present invention have good selectivity to wild-type EGFR
as §1, §2, §3, §4, §5, §6, §7, §8, §9, §10, §11, §12
a) The cell supernatant was discarded, rinsed once with 1×PBS, and fixed with 10% trichloroacetic acid for 1 hour. The trichloroacetic acid was discarded, excess trichloroacetic acid was washed off with tap water, and the 96-well plate was dried in a 60° C. oven.
b) 70 μL of an SRB stain was added to each well of the dry 96-well plate for staining at a room temperature for 30 minutes. Excess SRB stain was washed off with 1% glacial acetic acid, and the 96-well plate was dried in a 60° C. oven.
c) SRB was dissolved with 100 μL of 10 mM Tris-base solution. The absorbance was detected at 540 nm ultraviolet absorption using the microplate reader. The data was analyzed.
as §13

Sequence of EGFR^L858R/T790M/C797S kinase (P00533 25-1210 T790M/C797S/L858R): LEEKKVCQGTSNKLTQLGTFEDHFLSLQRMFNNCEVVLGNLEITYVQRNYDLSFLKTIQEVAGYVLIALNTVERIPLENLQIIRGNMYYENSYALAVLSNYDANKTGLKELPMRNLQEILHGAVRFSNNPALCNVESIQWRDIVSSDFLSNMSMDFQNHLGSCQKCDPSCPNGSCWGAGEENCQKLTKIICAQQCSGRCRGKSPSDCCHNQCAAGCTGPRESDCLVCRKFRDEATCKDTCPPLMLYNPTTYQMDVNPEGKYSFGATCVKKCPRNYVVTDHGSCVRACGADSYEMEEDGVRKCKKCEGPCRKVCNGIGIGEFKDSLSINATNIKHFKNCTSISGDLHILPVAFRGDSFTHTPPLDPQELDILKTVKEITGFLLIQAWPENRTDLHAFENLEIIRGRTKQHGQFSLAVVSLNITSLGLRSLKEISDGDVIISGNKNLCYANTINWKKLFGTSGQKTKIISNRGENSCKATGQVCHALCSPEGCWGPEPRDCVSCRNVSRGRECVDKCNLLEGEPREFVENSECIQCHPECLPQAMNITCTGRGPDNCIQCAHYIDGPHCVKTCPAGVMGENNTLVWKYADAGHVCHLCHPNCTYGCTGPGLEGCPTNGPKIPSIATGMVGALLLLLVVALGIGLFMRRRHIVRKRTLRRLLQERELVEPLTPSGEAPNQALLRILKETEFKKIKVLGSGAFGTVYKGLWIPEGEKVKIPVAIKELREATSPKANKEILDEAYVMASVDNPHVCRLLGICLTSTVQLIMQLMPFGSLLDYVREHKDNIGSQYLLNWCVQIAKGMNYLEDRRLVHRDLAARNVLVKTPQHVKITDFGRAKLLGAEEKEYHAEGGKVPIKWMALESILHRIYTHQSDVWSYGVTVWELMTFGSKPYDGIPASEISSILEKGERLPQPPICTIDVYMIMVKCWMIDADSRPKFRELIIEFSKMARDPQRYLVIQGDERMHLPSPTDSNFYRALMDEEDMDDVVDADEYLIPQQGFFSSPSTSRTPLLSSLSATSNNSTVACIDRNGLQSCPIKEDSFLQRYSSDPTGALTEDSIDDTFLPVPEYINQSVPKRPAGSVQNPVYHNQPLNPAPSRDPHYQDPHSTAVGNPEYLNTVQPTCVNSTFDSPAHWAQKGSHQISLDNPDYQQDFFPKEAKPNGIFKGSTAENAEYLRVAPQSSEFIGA

Structure (SMILES) | IC50 [1] | IC50 [2] | IC50 (A431 cells)
CCc1cc(Nc2ncc(Cl)c(Nc3cc(Cl)c(Cl)cc3P(C)(C)=O)n2)c(OC)cc1N1CCC2(CC1)CC(N(C)C)C2 [Compound 7, (4,5-Dichloro-2-((5-chloro-2-((4-(2-(dimethylamino)-7-azaspiro[3. 5]nonan-7-yl)-5-ethyl-2-methoxyphenyl)amino)pyrimidin-4-yl)amino)phenyl)dimethylphosphine oxide] | 0.98 nM | 49.9 nM | > 500 nM
CCc1cc(Nc2ncc(Cl)c(Nc3ccccc3P(C)(C)=O)n2)c(OC)cc1N1CC2(CCN(C)CC2)C1 [Comparative Compound B, (2-((5-Chloro-2-((5-ethyl-2-methoxy-4-(7-methyl-2,7-diazaspiro[3.5]nonan-2-yl)phenyl)amino)pyrimidin-4-yl)amino)phenyl)dimethylphosphine oxide, reference compound] | 2.3 nM | 251 nM | 280 nM
COc1cc(N2CCC3(CC2)CC(N(C)C)C3)c(F)cc1Nc1ncc(Cl)c(Nc2cc(C)c(C)cc2P(C)(C)=O)n1 [Compound 16, (2-((5-chloro-2-((4-(2-(dimethylamino)-7-azaspiro[3.5]nonan-7-yl)-5-fluoro-2-methoxypheny 1)amino)pyrimidin-4-yl)amino)-4,5-dimethylphenyl)dimethylphosphine oxide] | 12 nM | 35.7 nM | > 500 nM
CCc1cc(Nc2ncc(Cl)c(Nc3cc(C(F)(F)F)ccc3P(C)(C)=O)n2)c(OC)cc1N1CCC2(CC1)CC(N(C)C)C2 [Compound 8, (2-((5-Chloro-2-((4-(2-(dimethylamino)-7-azaspiro[3.5]nonan-7-yl)-5-ethyl-2-methoxypheny 1)amino)pyrimidin-4-yl)amino)-4-(trifluoromethyl)phenyl)dimethylphosphine oxide] | 29 nM | 261 nM | > 1000 nM
COc1cc(N2CCC3(CC2)CC(N(C)C)C3)c(Cl)cc1Nc1ncc(Cl)c(Nc2cc(C)c(C)cc2P(C)(C)=O)n1 [Compound 13, (2-((5-Chloro-2-((5-chloro-4-(2-(dimethylamino)-7-azaspiro[3.5]nonan-7-yl)-2-methoxyphenyl)amino)pyrimidin-4-yl)amino)-4,5-dimethylphenyl)dimethylphosphine oxide] | 0.89 nM | 38.1 nM | > 500 nM
COc1cc(N2CCC3(CC2)CC(N(C)C)C3)c(C)cc1Nc1ncc(Cl)c(Nc2ccc(C)c(C)c2P(C)(C)=O)n1 [Compound 23, (6-((5-chloro-2-((4-(2-(dimethylamino)-7-azaspiro[3.5]nonan-7-yl)-2-methoxy-5-methylphenyl)amino)pyrimidin-4-yl)amino)-2,3-dimethylphenyl)dimethylphosphine oxide] | 0.78 nM | 39 nM | > 500 nM
CCc1cc(Nc2ncc(Cl)c(Nc3cc(C)c(C)cc3P(C)(C)=O)n2)c(OC)cc1N1CCC2(CC1)CC(N(C)C)C2 [Compound 17, (2-((5-Chloro-2-((4-(2-(dimethylamino)-7-azaspiro[3.5]non-7-yl)-5-ethyl-2-methoxyphenyl)amino)pyrimidin-4-yl)amino)-4,5-dimethylphenyl)dimethylphosphine oxide] | 0.77 nM | 45.4 nM | > 500 nM
COc1cc(N2CC3(CCC(N(C)C)CC3)C2)ccc1Nc1ncc(Cl)c(Nc2ccc(C)c(C)c2P(C)(C)=O)n1 [Compound 2, (6-((5-Chloro-2-((4-(7-(dimethylamino)-2-azaspiro[3.5]nonane-2-yl)-2-methoxyphenyl)amino)pyrimidin-4-yl)amino)-2,3-dimethylphenyl)dimethylphosphine oxide] | 89 nM | – | –

Continued, values first:

IC50 [1] | IC50 [2] | IC50 (A431 cells) | Structure (SMILES)
0.297 nM | 48.6 nM | 700 nM | CCc1cc(Nc2ncc(Cl)c(Nc3ccc(C)c(C)c3P(C)(C)=O)n2)c(OC)cc1N1CCC2(CCN(C)CC2)CC1 [Compound 55, (6-((5-Chloro-2-((5-ethyl-2-methoxy-4-(9-methyl-3,9-diazaspiro[5.5]undecan-3-yl)phenyl)amino)pyrimidin-4-yl)amino)-2,3-dimethylphenyl)dimethylphosphine oxide]
18.1 nM | – | – | CCc1cc(Nc2ncc(Cl)c(Nc3ccc(C)c(C)c3P(C)(C)=O)n2)c(OC)cc1N1CC2(CCC(CC#N)CC2)C1 [Compound 29, 2-(2-(4-((5-chloro-4-((2-(dimethylphosphoryl)-3,4-dimethylphenyl)amino)pyrimidin-2-yl)amino)-2-ethyl-5-methoxyphenyl)-2-azaspiro[3.5]nonane-7-yl)acetonitrile]
0.74 nM | – | – | CCc1cc(Nc2ncc(Cl)c(Nc3ccc(C)c(C)c3P(C)(C)=O)n2)c(OC)cc1N1CC2(CCN(CC3CC3)CC2)C1 [Compound 26]
0.63 nM | – | – | CCc1cc(Nc2ncc(Cl)c(Nc3cccc(Cl)c3P(C)(C)=O)n2)c(OC)cc1N1CC2(CCN(C)CC2)C1 [Compound 46]
0.48 nM | – | – | CCc1cc(Nc2ncc(Cl)c(Nc3cc(C)c(C)cc3P(C)(C)=O)n2)c(OC)cc1N1CC2(CCN(C)CC2)C1 [Compound 44]
8.23 nM | – | – | CCc1cc(Nc2ncc(Cl)c(Nc3ccc(C)c(C)c3P(C)(C)=O)n2)c(OC)cc1N1CCC2(CC1)CC(N1CC(C#N)C1)C2 [Compound 49, 1-(7-(4-((5-chloro-4-((2-(dimethylphosphoryl)-3,4-dimethylphenyl)amino)pyrimidin-2-yl)amino)-2-ethyl-5-methoxyphenyl)-7-azaspiro[3.5]nonan-2-yl)azetidine-3-carbonitrile]
0.49 nM | – | – | CCc1cc(Nc2ncc(Cl)c(Nc3cc(Cl)c(Cl)cc3P(C)(C)=O)n2)c(OC)cc1N1CC2(CCN(C3CC3)CC2)C1 [Compound 37]
